US8617563B2, “Antichlamydial agents” (Duke University, priority 2011, dated 2013)
Entries after “also recorded” stand apart in the source; their conditions may differ. Where no end group is shown, it is not given here.

Columns and labels:
[1] = test system: epithelial cells infected with C. trachomatis; test: Host cell death (condensed nuclei) in C. trachomatis infected cells; format: cell-based; conditions: dose-dependent, peptide at 12 hpi
Procedure: FIG. 11 depicts (A) that inhibiting CPAF activity induces host cell death. The indicated peptides (anti-CPAF peptide refers to SEQ ID NO:7) were added to infected cells 12 hpi and the percentage of infected cells with condensed nuclei was quantified at the indicated times. (B-C) Inhibition of CPAF activity induces apoptosis. Infected cells were treated with peptides and the percentage of AnnexinV-FITC positive (propidium iodide (PI) negative) was determined by flow cytometry (B). In parallel samples, cleavage of Caspase-3, a hallmark of apoptosome activation, was monitored by immunoblot analysis. Actin and MOMP are host and bacterial loading controls respectively. Staurosporine (2 μM)-treatment was used as a positive control and the pan-caspase inhibitor ZVAD-FMK were used as controls. (D) Cell death is blocked by a pan-Caspase inhibitor. Infected cells were treated as in (A) in the presence or absence of ZVAD-FMK, labeled with PI and analyzed by flow cytometry. Cells pre-treated with ZVAD-FMK and the control peptide lacked PI staining.
FIG. 12 depicts (A) low-magnification view of C. trachomatis LGV-L2 infected HeLa monolayers (30 h) treated with SEQ ID NO:7 or SEQ ID NO:11 peptides. […] HeLa cells infected with C. muridarum were treated with Ac-YVAD-CMK at 2 hpi, SEQ ID NO:7 peptide or SEQ ID NO:11 control peptide at 12 hpi and the percentage of infected cells with condensed nuclei was assessed at 48 hpi (F). […] The percentage of infected cells with condensed nuclei was assessed at 48 hpi (G). […] Cell death in infected and uninfected cells treated with CPAF inhibitory peptides or control peptides was determined by counting the number of condensed nuclei of ˜1000 cells.
FIG. 13 depicts (A) that Caspase-1 inhibitors block Chlamydia-mediated cell death. […] Cells were fixed and the percentage of cells with condensed nuclei determined at 24 hpi. […] Infected cells were labeled with a cell-permeable fluorescent substrate of Caspase-1 and treated with inhibitory peptides, and Caspase-1 activity was monitored by flow cytometry. […]

[2] = test system: Chlamydia-infected HeLa cells; test: Inclusion integrity and vimentin cage by immunofluorescence and TEM; format: cell-based, C. trachomatis; conditions: for Vimentin re-organization / cage around the inclusion: infected HeLa cells treated with peptide
Procedure: (§1) FIG. 9 depicts (A) CPAF inhibitory peptides block the generation of Chlamydia infectious particles. L2-infected HeLa cells were treated at 12 hpi with increasing concentration of peptides. EBs were harvested at 30 hpi and inclusion-forming units (IFU) were quantified on fresh cell monolayers. (B-D) CPAF activity is required to maintain inclusion integrity. The integrity of the inclusion was determined by assessing the immunolocalization of the inclusion membrane marker IncA (red) and Chlamydia (green) (B) and by transmission electron microscopy (C). […] (D) The percentage of vimentin-positive inclusions was determined by IF in infected cells treated with SEQ ID NO:7 and SEQ ID NO:11 (12 hpi) peptides at 24 hpi. (E) Activation of inflammatory cytokines upon inhibition of CPAF activity. Levels of IL-8 supernatants from Chlamydia infected cells treated with peptides as in (B-D) were determined at 24 hpi by ELISA.
FIG. 19 depicts HeLa cells infected with C. trachomatis L2, treated with SEQ ID NO:11 and SEQ ID NO:7, and harvested at 30 hpi. (A) Immunofluorescence microscopy via staining with an anti-vimentin antibody (“vimentin”) and an anti-Chlamydia L2 antibody (“L2”). […] (B) Cells were lysed in the presence of protease inhibitors, resolved by SDS-PAGE, and subjected to immunoblot analysis. Vimentin, RpoD (bacterial loading control), and GAPDH (host loading control) were visualized with substrate-specific antibodies).
For routine indirect immunofluorescence, HeLa cells were grown on glass coverslips and infected with Chlamydia at an MOI of 1. At the indicated times post-infection, cells were fixed with cold 3% formaldehyde, permeabilized with 0.1% Tx-100, blocked in 2% bovine serum albumin (BSA), and incubated with primary antibody followed by secondary fluorophore-conjugated anti-rabbit or anti-mouse IgG (available from Molecular Probes). Host and Chlamydial DNA were stained with 1 μM Hoechst (available from Invitrogen). […]

[3] = test system: IL-8 secretion; test: IL-8 secretion by infected HeLa cells (ELISA); format: cell-based, human; conditions: peptide 12.5 μM at 12 hpi, measured 24 hpi
Procedure: as §1
Next, the mechanism underlying the block in chlamydial replication was assessed by performing microscopy analyses of Chlamydia-infected cells treated with an inhibitor of CPAF (SEQ ID NO:7). […] IL-8 secretion into the media was determined with a Human IL-8 ELISA kit (available from BioLegend).

Substance: SLFYSPMVPHFWAELRNHYATSGLKRRRRRRRRR-NH2 [SEQ ID NO:7]
- Number of condensed nuclei in C. trachomatis infected cells [1]: marked increase in the number of condensed nuclei
- Vimentin re-organization / cage around the inclusion [2]: loss of vimentin re-organization around the inclusion; also recorded: increased disorder in the position of the vimentin cage
- Vimentin re-organization / cage around the inclusion ([2]; listed as peptide 4): loss of the vimentin cage
- Inclusion structure integrity (IncA, Cap1 localisation) ([2]; prolonged treatment (>8 h)): collapse of the inclusion structure
- IL-8 secretion [3]: increased IL-8 secretion
